Legend:
[1] = tested on: mice treated with yeast polysaccharide; test: Elevated plus maze test (EPM), visceral pain; type: in vivo; details: 3 mg/kg IP
Description: (§1) The visceral pain is induced by injecting yeast polysaccharide into the mice colony, and the yeast polysaccharide is derived from Saccharomyces cerevisiae (Sigma), wherein one kind of dextran is resident on the cell wall of the yeast and is identified as a protein-carbohydrate complex. Specifically, the mice were anesthetized after inhaling 1-3% isoflurane, and then a […] suspension of yeast polysaccharide (formulated as a 30 mg/ml solution in physiological saline) was injected into the colon of the mice by using a 24 mm long plastic feed needle within 2 minutes. The control group was injected with 0.1 ml physiological saline. The yeast polysaccharide or physiological saline was injected daily for 3 days. A visceral pain behavior test was carried out according to the Laird procedure. The number of times the mice licking the abdomen within 10 minutes was recorded, excluding other grooming behaviors, stretching of whole body, pressing the abdomen against the floor, and an 1-2-second arched posture. On day 1, 7 and 14 after the injection into the colon, an open field test was carried out from 9 am to 12 pm, and the entire test was a double-blind test. Prior to the behavioral test, the mice were acclimated for 30 minutes in an observation room. The mice were placed at the middle of a new open zone (43.2×43.2×30.5 cm^3) with micro light (<50 lux) and a fan. The movement distance, vertical count, movement count, stereotypic behavior count, and jumping count of animals were recorded within 30 minutes by means of an activity monitoring system equipped with multiple pairs of packaged light beam sets.
An anxious animal model of the prior art—the elevated plus maze test (EPM) was adopted. The mice were acclimated for 30 minutes in the room prior to the behavior observation. The EPM was composed of two open arms (250 lux) and two closed arms (350 lux) arranged opposite to each other. For each test, an individual animal was placed at the center of the test position and allowed to move freely. The test is carried out for 5 minutes. The number of entering the test position for each arm and the time spent therefore were recorded.
The EPM test tested the anxiety behavior of mice after the test treatment. The physiological saline, non-crystalline NB001 (3 mg/kg), the crystal of the present invention (3 mg/kg), and Gabapentin (30 mg/kg) as a positive control were intraperitoneally injected (IP) into the mice treated with yeast polysaccharide respectively. The behaviors of Mice were observed 28 days after the yeast polysaccharide treatment.

[2] = Stability test of the crystal form (stress, long-term and accelerated test); type: physicochemical
Description: Stress test, long-term stable test and accelerated stability test of the compound with the crystal form:
The stability of the compound with such a crystal form was investigated under conditions of a high temperature (60° C.), high humidity (92.5% RH), strong light irradiation (5 Klx), 40° C./75% RH (for accelerated test) and 25° C./60% RH (for long term test), in accordance with “Guidelines for Stability Testing of bulk pharmaceutical chemicals and formulation” (Chinese Pharmacopoeia 2015 Edition, four main sections of general requirements 9001).
10 mg of the crystalline sample involved in the Examples of the present invention was accurately weighed and placed on the bottom of a glass sample vial, and then spread out to form a thin layer. The samples for test under high temperature and high humidity conditions and for the long-term test were contained in vials sealed with aluminum-foil paper, and some small holes were made on the aluminum-foil paper to ensure that the sample can be fully in contact with ambient conditions; The samples for test under strong light irradiation and for the accelerated test were contained in vials sealed with screw bottle caps. The samples placed under different conditions were taken and analyzed on day 5, 10, and 30, and the analysis results were compared with the initial test results on day 0.

[3] = tested on: mice treated with yeast polysaccharide; test: Visceral pain behavior test in chronic visceral pain model; type: in vivo; details: 3 mg/kg IP
Description: Chronic Visceral Pain Model
as §1
The physiological saline, non-crystalline NB001 (3 mg/kg), the crystal of the present invention (3 mg/kg), and Gabapentin (30 mg/kg) as a positive control were intraperitoneally injected (IP) into the mice treated with yeast polysaccharide respectively. The behaviors of Mice were observed 28 days after the yeast polysaccharide treatment.

[4] = tested on: mice after neuropathic pain; test: Bright/dark box test, neuropathic pain; type: in vivo; details: 3 mg/kg IP, 3 mg/kg
[5] = Accelerated test (40° C./75% RH), Day 30
[6] = Long-term test (25° C./60% RH), Day 30
[7] = Stress test, high humidity (92.5% RH), Day 5
[8] = Stress test, high humidity (92.5% RH), Day 10
[9] = Stress test, high humidity (92.5% RH), Day 30
[10] = Stress test, high temperature (60° C.), Day 5
[11] = Stress test, high temperature (60° C.), Day 10
[12] = Stress test, high temperature (60° C.), Day 30
[13] = Stress test, strong light irradiation (5 Klx), Day 10

## Nc1ncnc2c1ncn2CCNCCCCCO [New NB001, 5-(((2-(6-amino)-9H-purin-9-yl)ethyl)amino)pentan-1-ol]
[1]; Table 7, listed as the crystal of the present invention
  therapeutic effect in EPM test as compared with the positive control group: extremely significant
[1]; Visceral pain, 3 mg/kg
  % time in the open arm: 10.3 ± 1.2 (8) %
[2]; [5]
  Characteristics: off-white powder
  Content (%): 99.51%
  Total Impurities (%): 0.49%
[2]; Day 0
  Characteristics: off-white powder
  Content (%): 99.39%
  Total Impurities (%): 0.61%
[2]; [6]
  Characteristics: off-white powder
  Content (%): off-
  Total Impurities (%): 0.60%
[2]; [7]
  Characteristics: off-white powder
  Content (%): 99.51%
  Total Impurities (%): 0.49%
[2]; [8]
  Characteristics: off-white powder
  Content (%): 99.41%
  Total Impurities (%): 0.59%
[2]; [9]
  Characteristics: off-white powder
  Content (%): 99.53%
  Total Impurities (%): 0.47%
[2]; [10]
  Characteristics: off-white powder
  Content (%): 99.47%
  Total Impurities (%): 0.53%
[2]; [11]
  Characteristics: off-white powder
  Content (%): 99.52%
  Total Impurities (%): 0.48%
[2]; [12]
  Characteristics: off-white powder
  Content (%): 99.43%
  Total Impurities (%): 0.57%
[2]; [13]
  Characteristics: off-white powder
  Content (%): 99.48%
  Total Impurities (%): 0.52%
[2]; all test conditions of Table 5
  stability under various test conditions: good
[3]; 28 days after yeast polysaccharide treatment
  Number of visceral pain scores: 11.0 ± 0.7
[3]; Table 6, listed as the crystal of the present invention
  therapeutic effect on chronic pain as compared with the positive control group: extremely significant
[4]
  % time in the open arm: 18.5 ± 1.4 (8) %

— patent US9963457B2, “Crystal of 5-((2-(6-amino)-9H-purin-9-yl)ethyl)amino)pentan-1-o1” (FOREVER CHEER INTERNATIONAL LIMITED, priority 2016, dated 2018)
